Reference: US20230183216A1, “PYRIDIZIN-3(2H)-ONE DERIVATIVES” (Gilead Sciences, Inc., priority 2021, published 2023)

What was measured:
PARP7 = target: T1, PARP7 (Homo sapiens, UniProt Q7Z3E1); assay: biochemical;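 further: MSD light signal quantifying PARP7 captured by a plate-immobilized probe, read after 1.5 h equilibration plus 1.5 h with SULFO-TAG anti-GST antibody at room temperature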
T1 sequence (Q7Z3E1 1-657): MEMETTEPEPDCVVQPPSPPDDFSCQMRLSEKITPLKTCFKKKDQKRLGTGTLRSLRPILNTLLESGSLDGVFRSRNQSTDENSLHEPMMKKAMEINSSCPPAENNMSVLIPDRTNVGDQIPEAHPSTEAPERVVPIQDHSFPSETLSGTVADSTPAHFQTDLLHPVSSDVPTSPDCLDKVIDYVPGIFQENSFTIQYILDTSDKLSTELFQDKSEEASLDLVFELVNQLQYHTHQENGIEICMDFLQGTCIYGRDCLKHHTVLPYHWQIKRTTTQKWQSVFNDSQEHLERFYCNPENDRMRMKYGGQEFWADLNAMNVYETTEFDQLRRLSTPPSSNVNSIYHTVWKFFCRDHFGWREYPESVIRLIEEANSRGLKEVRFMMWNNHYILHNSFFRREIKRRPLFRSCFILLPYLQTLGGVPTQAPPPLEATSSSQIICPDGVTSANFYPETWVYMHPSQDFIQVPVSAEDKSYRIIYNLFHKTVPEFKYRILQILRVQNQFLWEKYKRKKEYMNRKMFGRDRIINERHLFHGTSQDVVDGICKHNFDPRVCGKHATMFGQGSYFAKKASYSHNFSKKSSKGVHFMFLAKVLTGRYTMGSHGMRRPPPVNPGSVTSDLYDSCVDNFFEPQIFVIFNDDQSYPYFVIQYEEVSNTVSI

[1] = system: STAT1 (phosphorylated at Tyr701) in NCI-H1373 cells; assay: Phospho-STAT1 (Tyr701) LANCE Ultra TR-FRET Detection Assay; assay type: cell-based; settings: Homo sapiens, 48 hours, induction of pSTAT1, normalized to 10 uM positive control and DMSO, 4-parameter fit, read-out: NH1373 pSTAT1 EC50
Experimental: Phospho-STAT1 (Tyr701 LANCE Ultra TR-FRET Detection Assay
LANCE Ultra phospho-STAT1 (Tyr701) kits available from Perkin Elmer are designed for the detection of phosphorylated STAT1 in cell lysates using a simple, homogeneous LANCE Ultra sandwich assay (Cat. #TRF4028M). This assay is intended for assessing compound induction of endogenous levels of cellular STAT1 (phosphorylated at Tyr701) in NCI-H1373 cells. The NCI-H1373 cells are cultured in RPMI 1640 media containing 10% heat inactivated FBS, GlutaMAX, 1% Penicillin-Streptomycin. An Echo acoustic liquid handler is used to transfer 60 nanoliters of compound dilutions using the Echo Qualified, 384-well polypropylene microplate clear flat bottom source plates into a Greiner (#781080) cell culture microplate. NCI-H1373 cells are seeded into these compound-spotted culture plates at 30,000 cells/well in a 60 uL volume in growth media. The plates are incubated in a 5% CO2 humidified incubator at 37° C. for 48 hours. […] Briefly, 20 μL of supplemented lysis buffer is added to each well and allowed to shake for 1 hour at 400 rpm. Next, 5 ul of remixed antibody solutions (vol/vol) prepared in detection buffer are added to each well and allowed to incubate at room temperature overnight. After spinning the plate down at 300 rpm for […], the plate is read on an EnVision plate reader set up for Eu3+ Cryptate and fluorescence emission is measured at two different wavelengths (665 nm and 620 nm).

| Structure (SMILES) | IC50 (PARP7) | EC50 [1] |
| --- | --- | --- |
| O=C(C[C@H]1CCCCN1c1cc(C(F)(F)F)c(=O)[nH]n1)N1CCN(c2ncc(C(F)(F)F)cn2)CC1 [Example 34, (R)-6-(2-(2-oxo-2-(4-(5-(trifluoromethyl)pyrimidin-2-yl)piperazin-1-yl)ethyl)piperidin-1-yl)-4-(trifluoromethyl)pyridazin-3(2H)-one] | 4.46 nM | 1690 nM |
| CCN(CCCC(=O)N1CCN(c2ncc(C(F)(F)F)cn2)CC1)c1cc(C(F)(F)F)c(=O)[nH]n1 [Example 36, 6-(ethyl(4-oxo-4-(4-(5-(trifluoromethyl)pyrimidin-2-yl)piperazin-1-yl)butyl)amino)-4-(trifluoromethyl)pyridazin-3(2H)-one] | 0.179 nM | 51.6 nM |
| CCCN(CCCC(=O)N1CCN(c2ncc(C(F)(F)F)cn2)CC1)c1cc(C(F)(F)F)c(=O)[nH]n1 [Example 37, 6-((4-oxo-4-(4-(5-(trifluoromethyl)pyrimidin-2-yl)piperazin-1-yl)butyl)(propyl)amino)-4-(trifluoromethyl)pyridazin-3(2H)-one] | 0.28 nM | 134 nM |
| O=C(N1CCN(c2ncc(C(F)(F)F)cn2)CC1)N1CCC[C@@H](Nc2cc(C(F)(F)F)c(=O)[nH]n2)C1 [Example 38, (R)-4-(trifluoromethyl)-6-((1-(4-(5-(trifluoromethyl)pyrimidin-2-yl)piperazine-1-carbonyl)piperidin-3-yl)amino)pyridazin-3(2H)-one] | 2.71 nM | 1870 nM |
| O=C(N1CCN(c2ncc(C(F)(F)F)cn2)CC1)N1CCC[C@H](Nc2cc(C(F)(F)F)c(=O)[nH]n2)C1 [Example 39, (S)-4-(trifluoromethyl)-6-((1-(4-(5-(trifluoromethyl)pyrimidin-2-yl)piperazine-1-carbonyl)piperidin-3-yl)amino)pyridazin-3(2H)-one] | 0.719 nM | 1030 nM |
| O=C(CC[C@@H](Nc1cc(C(F)(F)F)c(=O)[nH]n1)C(F)F)N1CCN(c2ncc(C(F)(F)F)cn2)CC1 [Example 40, (R)-6-((1,1-difluoro-5-oxo-5-(4-(5-(trifluoromethyl)pyrimidin-2-yl)piperazin-1-yl)pentan-2-yl)amino)-4-(trifluoromethyl)pyridazin-3(2H)-one] | 0.275 nM | 63 nM |
| O=C(CC[C@@H]1COCCN1c1cc(C(F)(F)F)c(=O)[nH]n1)N1CCN(c2ncc(C(F)(F)F)cn2)CC1 [Example 42, (R)-6-(3-(3-oxo-3-(4-(5-(trifluoromethyl)pyrimidin-2-yl)piperazin-1-yl)propyl)morpholino)-4-(trifluoromethyl)pyridazin-3(2H)-one] | 0.598 nM | 901 nM |
| O=C([C@@H]1CN(c2cc(C(F)(F)F)c(=O)[nH]n2)CCO1)N1CCN(c2ncc(C(F)(F)F)cn2)CC1 [Example 43, (S)-4-(trifluoromethyl)-6-(2-(4-(5-(trifluoromethyl)pyrimidin-2-yl)piperazine-1-carbonyl)morpholino)pyridazin-3(2H)-one] | 20.1 nM | ≥ 10000 nM |
| O=C(CCCN(c1ccccc1)c1cc(C(F)(F)F)c(=O)[nH]n1)N1CCN(c2ncc(C(F)(F)F)cn2)CC1 [Example 44, 6-((4-oxo-4-(4-(5-(trifluoromethyl)pyrimidin-2-yl)piperazin-1-yl)butyl)(phenyl)amino)-4-(trifluoromethyl)pyridazin-3(2H)-one] | 0.151 nM | 74.1 nM |
| O=C(CCC1Cc2ccccc2N1c1cc(C(F)(F)F)c(=O)[nH]n1)N1CCN(c2ncc(C(F)(F)F)cn2)CC1 (centres unmarked) [Example 47, 3-[2-[3-oxo-3-[4-[5-(trifluoromethyl)pyrimidin-2-yl]piperazin-1-yl]propyl]indolin-1-yl]-5-(trifluoromethyl)-1H-pyridazin-6-one] | 0.232 nM | 179 nM |
| O=C([C@@H]1Cc2ccccc2N1c1cc(C(F)(F)F)c(=O)[nH]n1)N1CCN(c2ncc(C(F)(F)F)cn2)CC1 [Example 49, 5-(trifluoromethyl)-3-[(2S)-2-[4-[5-(trifluoromethyl)pyrimidin-2-yl]piperazine-1-carbonyl]indolin-1-yl]-1H-pyridazin-6-one] | 1.1 nM | 858 nM |
| O=C(CC[C@@H]1Cc2ccccc2N1c1cc(C(F)(F)F)c(=O)[nH]n1)N1CCN(c2ncc(C(F)(F)F)cn2)CC1 [Example 50, 3-[(2R)-2-[3-oxo-3-[4-[5-(trifluoromethyl)pyrimidin-2-yl]piperazin-1-yl]propyl]indolin-1-yl]-5-(trifluoromethyl)-1H-pyridazin-6-one] | 0.357 nM | 221 nM |
| [2H]C1([2H])N(C(=O)CCCNc2cc(C(F)(F)F)c(=O)[nH]n2)C([2H])([2H])C([2H])([2H])N(c2ncc(C(F)(F)F)cn2)C1([2H])[2H] [Example 51, 3-[[4-[2,2,3,3,5,5,6,6-octadeuterio-4-[5-(trifluoromethyl)pyrimidin-2-yl]piperazin-1-yl]-4-oxo-butyl]amino]-5-(trifluoromethyl)-1H-pyridazin-6-one] | 0.165 nM | 123 nM |
| [2H]C1([2H])N(C(=O)CCCCc2cc(C(F)(F)F)c(=O)[nH]n2)C([2H])([2H])C([2H])([2H])N(c2ncc(C(F)(F)F)cn2)C1([2H])[2H] [Example 52, 3-[5-[2,2,3,3,5,5,6,6-octadeuterio-4-[5-(trifluoromethyl)pyrimidin-2-yl]piperazin-1-yl]-5-oxo-pentyl]-5-(trifluoromethyl)-1H-pyridazin-6-one] | 0.359 nM | 209 nM |
| O=C(CCCNc1cc(C(F)(F)F)c(=O)[nH]n1)N1CCN(c2ccc(C(F)(F)F)cn2)CC1 [Example 53, 3-[[4-oxo-4-[4-[5-(trifluoromethyl)-2-pyridyl]piperazin-1-yl]butyl]amino]-5-(trifluoromethyl)-1H-pyridazin-6-one] | 0.34 nM | 218 nM |
| N#Cc1ccc(N2CCN(C(=O)CCCNc3cc(C(F)(F)F)c(=O)[nH]n3)CC2)nc1 [Example 54, 6-[4-[4-[[6-oxo-5-(trifluoromethyl)-1H-pyridazin-3-yl]amino]butanoyl]piperazin-1-yl]pyridine-3-carbonitrile] | 0.408 nM | 690 nM |
| O=C([C@@H]1CCN1c1cc(C(F)(F)F)c(=O)[nH]n1)N1CCN(c2ncc(C(F)(F)F)cn2)CC1 [Example 55, 5-(trifluoromethyl)-3-[(2S)-2-[4-[5-(trifluoromethyl)pyrimidin-2-yl]piperazine-1-carbonyl]azetidin-1-yl]-1H-pyridazin-6-one] | 0.339 nM | 282 nM |
| O=C(CCCN(CC(F)F)c1cc(C(F)(F)F)c(=O)[nH]n1)N1CCN(c2ncc(C(F)(F)F)cn2)CC1 [Example 56, 3-[2,2-difluoroethyl-[4-oxo-4-[4-[5-(trifluoromethyl)pyrimidin-2-yl]piperazin-1-yl]butyl]amino]-5-(trifluoromethyl)-1H-pyridazin-6-one] | 0.877 nM | 452 nM |
| O=C([C@@H]1Cc2ccccc2CN1c1cc(C(F)(F)F)c(=O)[nH]n1)N1CCN(c2ncc(C(F)(F)F)cn2)CC1 [Example 57, 5-(trifluoromethyl)-3-[(3S)-3-[4-[5-(trifluoromethyl)pyrimidin-2-yl]piperazine-1-carbonyl]-3,4-dihydro-1H-isoquinolin-2-yl]-1H-pyridazin-6-one] | 4.37 nM | 1710 nM |
